Data set [1] deals with MDA-MB-231 breast cancer cells. Kind of data set: MTT cytotoxicity assay on MDA-MB-231 breast cancer cells. The data set is classed as cell-based. To be noted: mean ± S.D. of three values. As to the method: (§1) This test was performed using the MDA-MB231 breast cancer cell line (ATCC® CRM-HBT-26), as described by Mosmann. The cells were incubated at different concentrations of the compounds of interest. To generate the cell viability curves of all synthesized compounds, cells were seeded in 96-well culture plates at a density of 5000 cells/well and cultured in DMEM supplemented with 10% FBS. Cell viability was measured using MTT reagent dissolved in PBS (0.5 mg/mL). On the day of measurement, the medium was carefully replaced with fresh DMEM and 10% SFB containing diluted MTT (1:10, 10% MTT), and the sample was incubated for 1 h at 37 °C in a CO2 incubator to allow for the transformation of MTT dye into Formazan salt. After removing the incubation medium, the Formazan crystals were dissolved in 100 µL of DMSO solution. It is also important to note that the reduction in MTT was quantified by measuring absorbance at 570 nm using the Benchmark Plus absorbance microplate reader (Bio-Rad). The MTT test was repeated nine times. The proliferation percentage (% viability) was calculated according to the following:% Viability = (B/A) × 100 where A is the absorbance value of the control group and B is the absorbance value of the cells treated with the compounds of interest.
IC50 was extrapolated from the dose–response plot, obtained by plotting viability versus concentration. The concentration of the drug that reduced the viability of the cells by 50% (IC50) was determined by plotting the data points in triplicate over a concentration range and calculating the values using regression analysis.
In general terms: Tetrazolium assays rely on reduction of a dye to a coloured formazan, in cell work by metabolically active cells.

A short description of data set [2]: Solubility observed in the cytotoxic testing. The data set is classed as physicochemical. The conditions noted are these: observation during MTT testing.
Data set [3] in a line: MTT mortality on normal fibroblasts (control). In kind it is cell-based. To be noted: human, primary dermal fibroblast normal cells, data from IC50 (µM). As to the method: [The source words this procedure for another cell line and says it was used here with some conditions changed.] as §1
For data set [4], the system named is caspase-3. The conditions noted are these: cited from earlier work.
Where [5] appears, read: Homo sapiens, MDA-MB-231, MDA-MB-231, MTT assay, read-out: IC50 (μg/mL).
The mark [6] stands for this setting: Homo sapiens, MDA-MB-231, MDA-MB-231, MTT assay, read-out: IC50.

Each structure is given as a SMILES string. Read-outs that look alike come from different tables or passages of the source.

With `CC(=O)OC(C)(C)C(O)CCC(C)C1=CC(=O)C(C)=C(O)C1=O` (centres unmarked) [Compound 8], in data set [1] (setting [5]), the IC50 is 33 µg/mL. Also, the “solubility in the cytotoxic/IC50 testing (in words)” value in data set [2] was “poor solubility”.

What is called mortality is the percentage killed. Higher therefore signals a strong lethal effect. Regarding `CC1=CC(=O)C(C(C)CCC(O)C(C)(C)O)=C(O)C1=O` (centres unmarked) [Compound 9], the IC50 in data set [1] (setting [6]) was 101 ± 19.2 µM; in data set [1] (setting [5]), 28.4 ± 5.4 µg/mL. For the same compound, in data set [3], the mortality at 24 h was found to be 46.4 ± 1.08%.

On to `CC1=CC(=O)C(C(C)CCC2OC(C)(C)OC2(C)C)=C(O)C1=O` (centres unmarked) [Compound 5], for which the IC50 in data set [1] (setting [6]) came out at 74.9 ± 14.8 µM; in data set [1] (setting [5]), 24.1 ± 4.75 µg/mL. For the same compound, in data set [3], the mortality at 24 h was 90.7 ± 0.58%.

On to `CC1=CC(=O)c2c(O)cccc2C1=O` [plumbagin], for which the “binding energy of complex with caspase-3” value in data set [4] is -10.13 kcal/mol.

With `O=C[C@H](O)[C@@H](O)[C@@H](O)[C@H](O)C(=O)O` [D-galacturonic acid], in data set [4] (assessed for diabetes mellitus), the “binding energy with caspase-3” value is -4.03 kcal/mol.

In the case of `CC(=O)OC(C)(C)C(O)CCC(C)C1=C(O)C(=O)C(C)=CC1=O` (centres unmarked) [Compound 7], the IC50 in data set [1] (setting [6]) turned out to be 103 ± 5.96 µM; in data set [1] (setting [5]) it was 33.2 ± 1.93 µg/mL. In data set [3], the mortality at 24 h is 96.8 ± 2.76%. In data set [2], the “solubility in the cytotoxic/IC50 testing (in words)” value was “did not show great solubility”.

As to `CC1=C(O)C(=O)C(C(C)CCC2OC2(C)C)=CC1=O` (centres unmarked) [Compound 4], the IC50 turned out to be 114 ± 31.8 µM in data set [1] (setting [6]); 30 µg/mL in data set [1] (setting [5]); 30.2 ± 8.4 µg/mL in data set [1] (MDA-MB-231, MTT assay). In addition, in data set [3], the mortality at 24 h amounted to 42.38 ± 0.19%.

Consider `CC1=C(O)C(=O)C(C(C)CCC2OC(C)(C)OC2(C)C)=CC1=O` (centres unmarked) [Compound 6], for which the IC50 in data set [1] (setting [6]) was 8.44 ± 1.46 µM; in data set [1] (setting [5]), 2.72 ± 0.47 µg/mL. This compound also gave a mortality at 24 h in data set [3] of 18.4 ± 1.54%.

For `CC1=CC(=O)C(C(C)CCC2OC2(C)C)=C(O)C1=O` (centres unmarked) [Compound 3], the IC50 in data set [1] (setting [6]) was determined as 9.62 ± 0.76 µM; in data set [1] (setting [5]), 2.54 ± 0.2 µg/mL. The compound further had a mortality at 24 h in data set [3] of 19.5 ± 3.27%.

On to `CC(C)=CCC[C@@H](C)C1=CC(=O)C(C)=C(O)C1=O` [Compound 2, isoperezone, reference compound], for which the IC50 stood at 19.31 ± 0.05 µM in data set [1] (setting [6]) and 4.79 ± 0.01 µg/mL in data set [1] (setting [5]).

For the compound `CC1=C(O)C(=O)C(C(C)CCC(O)C(C)(C)O)=CC1=O` (centres unmarked) [Compound 10], the IC50 in data set [1] (setting [6]) was 140 ± 6.13 µM; in data set [1] (setting [5]), 39.4 ± 1.73 µg/mL. Besides, the mortality at 24 h in data set [3] worked out at 68.7 ± 1.08%.

The values above are taken from article PMC12693026, “Green Contributions to the Chemistry of Perezone and Oxidation of the Double Bond of the Side Chain: A Theoretical Study and Cytotoxic Evaluation in MDA-MB231 Cells” (Molecules, 2025).
